Among the data in the supplement of paper PMC10307832 are relative viability values, retold here.

Assay in all cases: relative viability (nuclei count vs DMSO), 5 days (fraction); higher = more cells survive
Compound in the experiment “Erlotinib + Alpelisib”: C#Cc1cccc(Nc2ncnc3cc(OCCOC)c(OCCOC)cc23)c1 [Erlotinib] + Cc1nc(NC(=O)N2CCC[C@H]2C(N)=O)sc1-c1ccnc(C(C)(C)C(F)(F)F)c1 [Alpelisib] (partner 2 µM)
The procedure, abridged: (§1)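 Relative viability was taken as the ratio of nuclei in treated wells to nuclei in vehicle wells. Lung cancer cell lines in 1536-well plates received compounds by pin tool one day after seeding, either one drug alone or a fixed anchor-drug dose plus five library-drug doses (not always all listed) in √10 steps. Nuclei were counted on 4× images after 5 days of treatment, and values are medians of duplicate plates.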

Compound in the experiment “Erlotinib + Bortezomib”: C#Cc1cccc(Nc2ncnc3cc(OCCOC)c(OCCOC)cc23)c1 [Erlotinib] + CC(C)C[C@H](NC(=O)[C@H](Cc1ccccc1)NC(=O)c1cnccn1)B(O)O [Bortezomib] (partner 0.002 µM)
The procedure, abridged:
as §1

Compound in the experiment “AT9283 + Luminespib”: O=C(Nc1c[nH]nc1-c1nc2ccc(CN3CCOCC3)cc2[nH]1)NC1CC1 [AT9283] + CCNC(=O)c1noc(-c2cc(C(C)C)c(O)cc2O)c1-c1ccc(CN2CCOCC2)cc1 [Luminespib] (partner 0.01 µM)
The procedure, abridged: as §1

Compound in the experiment “AT9283 + Pictilisib”: O=C(Nc1c[nH]nc1-c1nc2ccc(CN3CCOCC3)cc2[nH]1)NC1CC1 [AT9283] + CS(=O)(=O)N1CCN(Cc2cc3nc(-c4cccc5[nH]ncc45)nc(N4CCOCC4)c3s2)CC1 [Pictilisib] (partner 1 µM)
The procedure, abridged:
as §1

Compound in the experiment “Erlotinib + AZD7762”: C#Cc1cccc(Nc2ncnc3cc(OCCOC)c(OCCOC)cc23)c1 [Erlotinib] + NC(=O)Nc1cc(-c2cccc(F)c2)sc1C(=O)N[C@H]1CCCNC1 [AZD7762] (partner 0.2 µM)
The procedure, abridged: as §1

NCI-H2023: the relative viability with Erlotinib + Alpelisib (first compound 0.02 µM) came out at 0.64; in the experiment with Erlotinib + Alpelisib (first compound 0.2 µM), 0.525; with Erlotinib + Alpelisib (first compound 0.6325 µM), 0.453; with Erlotinib + Alpelisib (first compound 2 µM), 0.401; with Erlotinib + Bortezomib (first compound 0.02 µM), 0.949; with Erlotinib + Bortezomib (first compound 0.2 µM), 0.816. In addition, the relative viability was 1.14 in the experiment with Erlotinib + Bortezomib (first compound 0.6325 µM); 0.789 in the experiment with Erlotinib + Bortezomib (first compound 2 µM); 0.954 with AT9283 + Luminespib (first compound 0.003 µM); 0.742 with AT9283 + Luminespib (first compound 0.03 µM); 0.361 in the experiment with AT9283 + Luminespib (first compound 0.09487 µM); 0.11 in the experiment with AT9283 + Luminespib (first compound 0.3 µM). The relative viability in the experiment with AT9283 + Pictilisib (first compound 0.003 µM) was determined as 0.216; with AT9283 + Pictilisib (first compound 0.03 µM), 0.106; with AT9283 + Pictilisib (first compound 0.09487 µM), 0.0878; with AT9283 + Pictilisib (first compound 0.3 µM) it was 0.111.
For the cell line SK-MES-1, the relative viability in the experiment with Erlotinib + Alpelisib (first compound 0.02 µM) turned out to be 0.926; with Erlotinib + Alpelisib (first compound 0.2 µM) it was 0.536; in the experiment with Erlotinib + Alpelisib (first compound 0.6325 µM), 0.533; with Erlotinib + Alpelisib (first compound 2 µM), 0.298; with AT9283 + Luminespib (first compound 0.003 µM), 0.885; with AT9283 + Luminespib (first compound 0.03 µM), 0.821. Also, the relative viability stood at 0.405 with AT9283 + Luminespib (first compound 0.09487 µM); 0.22 with AT9283 + Luminespib (first compound 0.3 µM); 0.345 in the experiment with AT9283 + Pictilisib (first compound 0.003 µM); 0.314 with AT9283 + Pictilisib (first compound 0.03 µM); 0.158 with AT9283 + Pictilisib (first compound 0.09487 µM); 0.147 with AT9283 + Pictilisib (first compound 0.3 µM).
As for NCI-H522, the relative viability with AT9283 + Luminespib (first compound 0.003 µM) came out at 1.14; with AT9283 + Luminespib (first compound 0.03 µM), 0.99; with AT9283 + Luminespib (first compound 0.09487 µM), 0.467; in the experiment with AT9283 + Luminespib (first compound 0.3 µM), 0.51; with Erlotinib + AZD7762 (first compound 0.02 µM), 0.812; with Erlotinib + AZD7762 (first compound 0.2 µM), 0.893. Moreover, the values for the relative viability with Erlotinib + AZD7762 (first compound 0.6325 µM) and with Erlotinib + AZD7762 (first compound 2 µM) were 1.02 and 0.833, respectively.
On to HCC-78, for which the relative viability with Erlotinib + Alpelisib (first compound 0.02 µM) amounted to 0.353; with Erlotinib + Alpelisib (first compound 0.2 µM), 0.337; with Erlotinib + Alpelisib (first compound 0.6325 µM) it was 0.305; in the experiment with Erlotinib + Alpelisib (first compound 2 µM), 0.186; with Erlotinib + Bortezomib (first compound 0.02 µM), 0.452; with Erlotinib + Bortezomib (first compound 0.2 µM), 0.333. The relative viability is 0.496 with Erlotinib + Bortezomib (first compound 0.6325 µM); 0.302 in the experiment with Erlotinib + Bortezomib (first compound 2 µM); 0.5 with Erlotinib + AZD7762 (first compound 0.02 µM); 0.55 with Erlotinib + AZD7762 (first compound 0.2 µM); 0.524 in the experiment with Erlotinib + AZD7762 (first compound 0.6325 µM); 0.369 with Erlotinib + AZD7762 (first compound 2 µM). Besides, the relative viability in the experiment with AT9283 + Pictilisib (first compound 0.003 µM) came to 0.211; in the experiment with AT9283 + Pictilisib (first compound 0.03 µM) it was 0.218; with AT9283 + Pictilisib (first compound 0.09487 µM), 0.123; with AT9283 + Pictilisib (first compound 0.3 µM), 0.151.
In the case of NCI-H1648, the relative viability with Erlotinib + AZD7762 (first compound 0.2 µM) is 0.649; in the experiment with Erlotinib + AZD7762 (first compound 0.6325 µM), 0.64; with Erlotinib + AZD7762 (first compound 2 µM), 0.465.
As to NCI-H661, the relative viability in the experiment with Erlotinib + Alpelisib (first compound 0.02 µM) was determined as 0.545; with Erlotinib + Alpelisib (first compound 0.2 µM), 0.556; in the experiment with Erlotinib + Alpelisib (first compound 0.6325 µM), 0.782; in the experiment with Erlotinib + Alpelisib (first compound 2 µM) it was 0.426; with Erlotinib + Bortezomib (first compound 0.02 µM), 0.887; with Erlotinib + Bortezomib (first compound 0.2 µM) it was 0.555. The relative viability with Erlotinib + Bortezomib (first compound 0.6325 µM) is 0.881; with Erlotinib + Bortezomib (first compound 2 µM), 0.646; in the experiment with AT9283 + Luminespib (first compound 0.003 µM), 0.916; with AT9283 + Luminespib (first compound 0.03 µM), 0.399; in the experiment with AT9283 + Luminespib (first compound 0.09487 µM), 0.304; in the experiment with AT9283 + Luminespib (first compound 0.3 µM), 0.313. In addition, the relative viability came to 0.296 with AT9283 + Pictilisib (first compound 0.003 µM), 0.382 with AT9283 + Pictilisib (first compound 0.03 µM), 0.334 in the experiment with AT9283 + Pictilisib (first compound 0.09487 µM) and 0.292 with AT9283 + Pictilisib (first compound 0.3 µM).
A549: the relative viability was 0.709 with Erlotinib + Alpelisib (first compound 0.02 µM); 0.68 in the experiment with Erlotinib + Alpelisib (first compound 0.2 µM); 0.728 in the experiment with Erlotinib + Alpelisib (first compound 0.6325 µM); 0.595 with Erlotinib + Alpelisib (first compound 2 µM); 0.503 with AT9283 + Pictilisib (first compound 0.003 µM); 0.0938 with AT9283 + Pictilisib (first compound 0.03 µM). Besides, the relative viability with AT9283 + Pictilisib (first compound 0.09487 µM) was determined as 0.0787; with AT9283 + Pictilisib (first compound 0.3 µM), 0.0772.
